From patent publication US20210128724A1 (priority 2019, published 2021)

B1: Galcanezumab (antibody, chains of the INN, looked up, V domains shown)
VH: QVQLVQSGAEVKKPGSSVKVSCKASGYTFGNYWMQWVRQAPGQGLEWMGAIYEGTGKTVYIQKFADRVTITADKSTSTAYMELSSLRSEDTAVYYCARLSDYVSGFGYWGQGTTVTVSS
VL: DIQMTQSPSSLSASVGDRVTITCRASKDISKYLNWYQQKPGKAPKLLIYYTSGYHSGVPSRFSGSGSGTDFTLTISSLQPEDFATYYCQQGDALPPTFGGGTKVEIK

Columns and labels:
[1] = tested on: C-fibers in the trigeminal ganglion; conditions: rat, in vivo
[2] = tested on: Aδ-fibers in the trigeminal ganglion; conditions: rat, in vivo
[3] = tested on: neurons in the trigeminal ganglion; conditions: rat, in vivo
[4] = design: species or system human; conditions: in vivo
[5] = design: species or system human; conditions: in vivo; for Development of post-traumatic syndrome after treatment within the first day after blast injury: sc
[6] = tested on: trigeminovascular Aδ-nociceptors, high threshold (HT) neurons, C-fiber and wide dynamic range (WDR) neurons; conditions: rat, in vivo

Molecule	Baseline firing rate, C-fibers [1]	Effect on response to CSD in unmyelinated C-fibers [1]	Baseline firing rate, Aδ-neurons [2]	Effect on response to CSD in Aδ-neurons [2]	Baseline firing rate prior to CSD [3]	Outcome after treatment following 1 month of symptoms after head injury [4]	Outcome after treatment promptly after head injury, before onset of symptoms [4]	Outcome after treatment once symptoms had developed after blast injury [5]	Development of post-traumatic syndrome after treatment within the first day after blast injury [5]	Activation of C-fiber and wide dynamic range (WDR) neurons [6]	Activation of trigeminovascular Aδ-nociceptors and high threshold (HT) neurons [6]
onabotulinumtoxinA [BoNT-A]	0.7 spikes/sec	inhibited the response to CSD	0.7 spikes/sec	no significant difference	0.7 Hz	headaches are lessened in severity and frequency, they experience improved sleep and improved cognition	continues to do well	headaches resolve a month after their treatment with decreased photophobia, dizziness, tinnitus and insomnia	do not develop any features of a post-traumatic syndrome	–	–
fremanezumab	–	–	–	–	–	–	–	–	–	not	blocked the activation
B1	–	–	–	–	–	–	–	–	do not develop any features of a post-traumatic syndrome	–	–
